Active and inactive are the calls of the source.
Experiments:
[1] = HepG2 cell cytotoxicity, dose response, cytotoxicity control, cherry-picked samples (AID 1159577); type: functional, cell-based
[2] = P. falciparum Dd2 growth inhibitors, dose response, SYBR Green, cherry-picked samples (AID 1159567); type: functional, cell-based
[3] = P. falciparum 3D7-ScDHODH growth inhibitors, dose response, SYBR Green, dry powder samples (AID 1159570); type: functional, cell-based;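 also: parasite growth measured after 72 hours of compound exposure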
[4] = P. falciparum Dd2 growth inhibitors, dose response, SYBR Green, dry powder samples (AID 1159566); type: functional, cell-based;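 also: potency for growth inhibition with lower SYBR green DNA signal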
[5] = P. falciparum ATP4 D1247Y mutant growth inhibitors, dose response, NITD609-resistant line, SYBR Green, dry powder (AID 1159571); type: functional, cell-based;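 also: parasites synchronized at ring stage by sorbitol before testing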
[6] = HepG2 cell cytotoxicity, dose response, cytotoxicity control, plate reader, dry powder samples (AID 1159569); type: functional, cell-based;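 also: inhibitor potency with signal falling toward the positive control level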
Vero [7] = assay: cells; type: functional; conditions: Chlorocebus sabaeus
[8] = molecular target: T1, Hepatocyte nuclear factor 4-alpha (Homo sapiens, UniProt P41235); type: functional, cell-based;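 also: biochemical luminescence-based dose-response counterscreen measuring inhibition of HNF4 dimerization, run alongside a screen for blockers of ABHD5–perilipin-5 interaction; split luciferase complementation of HNF4 fusion proteins in cell lysate measuring dimerization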
T1 sequence (P41235 whole entry): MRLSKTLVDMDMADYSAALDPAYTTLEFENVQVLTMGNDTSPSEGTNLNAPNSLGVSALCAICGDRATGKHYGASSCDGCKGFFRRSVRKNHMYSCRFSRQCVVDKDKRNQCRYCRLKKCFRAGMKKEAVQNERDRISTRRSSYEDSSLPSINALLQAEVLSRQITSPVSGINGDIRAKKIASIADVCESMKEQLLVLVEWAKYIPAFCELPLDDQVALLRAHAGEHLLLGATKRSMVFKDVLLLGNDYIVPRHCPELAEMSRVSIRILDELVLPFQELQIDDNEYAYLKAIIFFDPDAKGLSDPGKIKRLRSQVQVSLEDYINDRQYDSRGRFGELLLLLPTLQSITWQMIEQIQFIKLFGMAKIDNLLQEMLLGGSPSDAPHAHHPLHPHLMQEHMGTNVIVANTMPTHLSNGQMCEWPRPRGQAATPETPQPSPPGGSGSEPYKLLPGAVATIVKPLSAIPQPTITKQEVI

Paired box protein Pax-8 = Paired box protein Pax-8 (Homo sapiens, UniProt Q06710); assay: inhibitors of PAX8-driven TPO luciferase reporter, dose response, RMG-I cells, cherry-pick (AID 687027); type: functional, cell-based;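 also: luciferase reporter driven by Pax8 target thyroperoxidase promoter measured by SteadyGlo luminescence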
Chain of Paired box protein Pax-8 (Q06710 whole entry): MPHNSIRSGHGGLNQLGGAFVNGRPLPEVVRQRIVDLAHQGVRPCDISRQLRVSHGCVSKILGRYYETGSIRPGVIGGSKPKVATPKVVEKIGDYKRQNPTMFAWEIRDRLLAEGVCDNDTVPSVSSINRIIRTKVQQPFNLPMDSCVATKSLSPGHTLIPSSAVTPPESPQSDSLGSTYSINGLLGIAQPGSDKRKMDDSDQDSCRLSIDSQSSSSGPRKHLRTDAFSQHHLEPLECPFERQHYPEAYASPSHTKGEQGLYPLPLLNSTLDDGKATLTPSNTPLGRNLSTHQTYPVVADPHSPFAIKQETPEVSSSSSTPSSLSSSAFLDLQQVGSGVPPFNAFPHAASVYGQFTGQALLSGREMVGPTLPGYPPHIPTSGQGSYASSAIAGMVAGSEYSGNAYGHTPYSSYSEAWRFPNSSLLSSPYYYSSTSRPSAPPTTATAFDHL

Vero [9] = assay: cells; type: functional, cell-based; conditions: Chlorocebus sabaeus
Protein RecA = molecular target: T2, Protein RecA (Mycobacterium tuberculosis, UniProt P9WHJ3); assay: Fluorescence Cell-Free Homogeneous Dose Retest to Identify Inhibitors of RecA-Intein Splicing Activity. [Related pubchem assays (depositor defined):AID2097, AID2223, AID489010, AID492950]; type: functional
T2 sequence (P9WHJ3 whole entry): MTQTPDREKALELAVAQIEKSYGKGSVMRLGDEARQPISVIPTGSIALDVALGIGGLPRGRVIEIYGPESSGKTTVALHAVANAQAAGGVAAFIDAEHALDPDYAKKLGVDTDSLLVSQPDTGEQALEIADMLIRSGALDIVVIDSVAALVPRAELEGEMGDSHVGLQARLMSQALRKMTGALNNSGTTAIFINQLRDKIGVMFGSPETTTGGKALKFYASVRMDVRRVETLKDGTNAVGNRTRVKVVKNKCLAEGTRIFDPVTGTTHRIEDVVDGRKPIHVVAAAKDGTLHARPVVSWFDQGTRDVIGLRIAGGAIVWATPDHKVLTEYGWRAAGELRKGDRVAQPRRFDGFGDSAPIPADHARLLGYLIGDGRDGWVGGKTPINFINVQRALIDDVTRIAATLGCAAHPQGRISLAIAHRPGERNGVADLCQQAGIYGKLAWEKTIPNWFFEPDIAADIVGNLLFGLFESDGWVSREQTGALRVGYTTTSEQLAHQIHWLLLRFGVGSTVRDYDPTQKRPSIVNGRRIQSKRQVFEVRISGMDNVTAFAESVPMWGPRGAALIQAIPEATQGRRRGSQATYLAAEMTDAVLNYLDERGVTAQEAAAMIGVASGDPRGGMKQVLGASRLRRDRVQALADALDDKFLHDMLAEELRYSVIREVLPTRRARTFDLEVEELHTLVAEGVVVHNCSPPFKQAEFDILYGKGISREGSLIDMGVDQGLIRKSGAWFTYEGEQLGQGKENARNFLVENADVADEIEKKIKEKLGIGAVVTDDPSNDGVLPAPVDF

[10] = molecular target: T3, Replicative DNA helicase DnaB (Mycobacterium tuberculosis, UniProt P9WMR3); assay: DnaB intein splicing inhibitors, dose response, biochemical, cell-free fluorescence (AID 449749); type: functional
T3 sequence (P9WMR3 whole entry): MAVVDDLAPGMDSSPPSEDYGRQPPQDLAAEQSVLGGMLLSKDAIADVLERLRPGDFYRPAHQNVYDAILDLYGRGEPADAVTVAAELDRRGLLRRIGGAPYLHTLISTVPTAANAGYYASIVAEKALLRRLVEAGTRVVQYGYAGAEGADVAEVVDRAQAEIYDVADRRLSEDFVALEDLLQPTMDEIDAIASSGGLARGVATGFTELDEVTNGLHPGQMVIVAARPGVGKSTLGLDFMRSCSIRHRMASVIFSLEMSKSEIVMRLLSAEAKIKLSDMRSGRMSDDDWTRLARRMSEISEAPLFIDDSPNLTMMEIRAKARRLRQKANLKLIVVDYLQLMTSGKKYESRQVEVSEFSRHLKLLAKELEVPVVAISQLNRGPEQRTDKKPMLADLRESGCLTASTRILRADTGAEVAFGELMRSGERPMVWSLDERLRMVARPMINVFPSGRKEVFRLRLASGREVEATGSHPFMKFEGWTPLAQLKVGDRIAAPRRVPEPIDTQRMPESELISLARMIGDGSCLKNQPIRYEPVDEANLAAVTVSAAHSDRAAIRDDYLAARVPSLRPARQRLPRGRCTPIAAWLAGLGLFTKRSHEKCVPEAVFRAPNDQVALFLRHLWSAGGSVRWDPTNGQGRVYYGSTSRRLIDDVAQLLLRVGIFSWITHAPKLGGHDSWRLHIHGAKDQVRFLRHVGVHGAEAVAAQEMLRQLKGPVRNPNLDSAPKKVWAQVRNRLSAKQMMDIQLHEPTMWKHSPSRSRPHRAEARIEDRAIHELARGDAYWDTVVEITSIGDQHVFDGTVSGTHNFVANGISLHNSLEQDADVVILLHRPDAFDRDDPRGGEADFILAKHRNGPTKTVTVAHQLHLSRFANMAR

[11] = molecular target: T4, Polyadenylate-binding protein 1 (Homo sapiens, UniProt P11940); assay: PABP1 MLLE–PAM2 interaction inhibitors, dose response, miRNA deadenylation inhibitor project, biochemical, fluorescence polarization, Cy5-PAM2 peptide, secondary (AID 602260); type: functional; conditions: read-out: IC50_Mean
T4 sequence (P11940 whole entry): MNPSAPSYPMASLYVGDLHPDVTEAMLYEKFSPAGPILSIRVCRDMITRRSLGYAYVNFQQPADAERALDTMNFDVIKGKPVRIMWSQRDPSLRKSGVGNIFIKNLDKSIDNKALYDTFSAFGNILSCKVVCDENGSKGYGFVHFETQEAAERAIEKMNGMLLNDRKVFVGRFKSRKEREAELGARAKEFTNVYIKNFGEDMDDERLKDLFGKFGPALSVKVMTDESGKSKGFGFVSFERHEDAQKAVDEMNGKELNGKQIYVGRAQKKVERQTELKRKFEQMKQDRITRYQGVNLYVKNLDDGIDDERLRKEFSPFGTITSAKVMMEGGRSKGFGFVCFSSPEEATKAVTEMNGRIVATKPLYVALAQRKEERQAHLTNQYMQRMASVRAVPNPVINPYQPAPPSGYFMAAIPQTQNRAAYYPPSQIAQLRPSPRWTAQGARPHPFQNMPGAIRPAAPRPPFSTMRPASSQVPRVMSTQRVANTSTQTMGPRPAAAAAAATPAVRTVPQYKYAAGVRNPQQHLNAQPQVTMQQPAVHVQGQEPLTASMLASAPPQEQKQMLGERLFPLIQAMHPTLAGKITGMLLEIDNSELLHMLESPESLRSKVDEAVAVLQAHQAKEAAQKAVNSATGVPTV

[12] = molecular target: T4, Polyadenylate-binding protein 1; assay: PABP1 MLLE–PAM2 binding inhibitor potency, dose response, biochemical, fluorescence polarization, FITC-PAM2 peptide (AID 602259); type: functional; conditions: read-out: IC50_Mean

Q: Which results are given for `CCCN1CCC2(CC1)CN(Cc1ccccc1OC)[C@H](CO)c1c2c2ccc(OC)cc2n1C`?
A: AC50 [1]: > 39000 nM (inactive); AC50 [2]: 2220 nM (active); AC50 [3]: 1490 nM (active); AC50 [4]: 681 nM (active); AC50 [5]: 888 nM (active); AC50 [6]: 25700 nM (active)

Q: For `O=C(Nc1ccccc1)N1CCCCN2[C@H](CO)[C@H](c3ccc(C#Cc4ccccc4)cc3)[C@@H]2C1`, which AC50 [2] is on record?
A: < 300 nM (active)

Q: What about the AC50 [3] of the same compound?
A: 37.8 nM (active)

Q: And the AC50 [4]?
A: 42.5 nM (active)

Q: And the AC50 [5]?
A: 38.6 nM (active)

Q: And the AC50 [6]?
A: > 100000 nM (inactive)

Q: What does the source list for `CO[C@@H]1CN(C)C(=O)c2cc(NC(=O)c3nc4ccccc4s3)ccc2OC[C@@H](C)N(Cc2ccncc2)C[C@H]1C`?
A: AC50 [1]: 24500 nM (active); AC50 [2]: 5880 nM (active)

Q: Which AC50 [1] does the source give for `COc1cccc(C#Cc2ccc([C@@H]3[C@@H](CO)N4C(=O)CN(C(=O)c5ccccc5)C[C@@H]34)cc2)c1` here?
A: > 39000 nM (inactive)

Q: What about the AC50 [2] of the same compound?
A: 2300 nM (active)

Q: What about the AC50 [3] of the same compound?
A: 2230 nM (active)

Q: What about the AC50 [4] of the same compound?
A: 1190 nM (active)

Q: And the AC50 [5]?
A: 1530 nM (active)

Q: Which CC50 (Vero [7]) does the source give for `C#CCN(C[C@@H]1[C@@H](OC(=O)Nc2cccs2)[C@@H](OC(=O)Nc2cccs2)Cn2c(=O)ccc(=O)n21)S(=O)(=O)c1ccc(C)cc1` here?
A: > 25000 nM (active)

Q: What about the IC50 [8] of the same compound?
A: 5600 nM (active)

Q: What about the AC50 (Paired box protein Pax-8) of the same compound?
A: 4220 nM (active)

Q: And the IC50 (Vero [9])?
A: 23300 nM (active)

Q: Which results are given for `O=C(O)c1ccccc1Nc1cc(Cl)c2nonc2c1[N+](=O)[O-]`?
A: EC50 (Protein RecA): 1940 nM (active); AC50 [10]: 49.2 nM (active); IC50 [11]: > 66000 nM (inactive); IC50 [12]: > 66000 nM (inactive)

Q: Which results are given for `Cc1cccc(-c2ccc([C@@H]3[C@H](CO)N4CCCCN(S(=O)(=O)c5ccccc5C)C[C@@H]34)cc2)c1`?
A: AC50 [1]: 9300 nM (active); AC50 [2]: 845 nM (active)
